Results reported in article PMC2248166, “Quantitative peptide binding motifs for 19 human and mouse MHC class I molecules derived using positional scanning combinatorial peptide libraries” (Immunome Research, 2008).
Where a SMILES comes first, the peptide text is derived from it.

Columns and labels:
HLA A*3001 = HLA A*3001 (Homo sapiens, UniProt P04439, D140H/D185E/E176W/F33S/G80R/H175R/K168Q/R138E/R41S); test: biochemical; type: binding
HLA B*1503 = HLA B*1503 (Homo sapiens, UniProt P01889, A329T/A93T/A95T/C349S/D201E/D98Y/E187L/E204Q/K202T/N87E/Q94N/R155S/R180L/S121R/S35A/V306I/V36M/Y140S/Y91S); test: biochemical; type: binding

Chain of HLA A*3001 (P04439 25-365 limits assumed, stated change not applied): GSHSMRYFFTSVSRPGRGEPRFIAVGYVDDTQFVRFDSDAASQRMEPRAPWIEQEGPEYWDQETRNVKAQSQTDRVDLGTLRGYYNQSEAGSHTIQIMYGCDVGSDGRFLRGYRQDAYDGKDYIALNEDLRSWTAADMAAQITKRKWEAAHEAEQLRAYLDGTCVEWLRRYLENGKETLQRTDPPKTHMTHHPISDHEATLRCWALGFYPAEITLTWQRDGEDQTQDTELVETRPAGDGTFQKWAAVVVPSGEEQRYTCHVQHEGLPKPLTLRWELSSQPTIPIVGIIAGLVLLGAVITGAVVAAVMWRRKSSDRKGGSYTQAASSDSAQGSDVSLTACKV

Row | SMILES | IC50 (HLA A*3001) | IC50 (HLA B*1503)
1 | CC[C@H](C)[C@H](N)C(=O)N[C@H](C(=O)N[C@@H](CCCCN)C(=O)N[C@H](C(=O)N[C@@H](CC(N)=O)C(=O)N[C@H](C(=O)N[C@@H](Cc1c[nH]cn1)C(=O)N[C@@H](CC(C)C)C(=O)N[C@@H](C)C(=O)O)[C@@H](C)O)[C@@H](C)CC)[C@@H](C)O [3102.0001] (H-ITKINTHLA-OH) | 15 nM | 
2 | CC[C@H](C)[C@H](N)C(=O)N[C@H](C(=O)N[C@@H](CCCCN)C(=O)N[C@@H](CO)C(=O)N1CCC[C@H]1C(=O)N[C@@H](Cc1ccc(O)cc1)C(=O)N[C@@H](CCSC)C(=O)N[C@@H](Cc1ccccc1)C(=O)N[C@@H](C)C(=O)O)[C@@H](C)CC [3102.0003] (H-IIKSPYMFA-OH) | 6.4 nM | 
3 | CC[C@H](C)[C@H](NC(=O)[C@H](CC(C)C)NC(=O)[C@@H](NC(=O)[C@@H](NC(=O)[C@H](CCCNC(=N)N)NC(=O)[C@H](Cc1ccccc1)NC(=O)[C@@H](N)CCCNC(=N)N)[C@@H](C)O)C(C)C)C(=O)N[C@@H](CO)C(=O)N[C@@H](CCCCN)C(=O)O [3102.0004] (H-RFRTVLISK-OH) | 4.6 nM | 
4 | CC(C)C[C@H](NC(=O)[C@H](CC(N)=O)NC(=O)[C@H](CC(C)C)NC(=O)[C@H](CCCNC(=N)N)NC(=O)[C@H](CCCNC(=N)N)NC(=O)[C@H](CO)NC(=O)[C@H](CCCCN)NC(=O)[C@H](CO)NC(=O)[C@@H](N)CCCCN)C(=O)O [3102.0008] (H-KSKSRRLNL-OH) | 13 nM | 
5 | CC(C)C[C@H](NC(=O)[C@H](CC(N)=O)NC(=O)[C@H](CC(C)C)NC(=O)[C@H](CCCNC(=N)N)NC(=O)[C@H](CCCNC(=N)N)NC(=O)[C@H](CO)NC(=O)[C@@H](N)CCCCN)C(=O)N[C@@H](Cc1ccccc1)C(=O)N[C@@H](CO)C(=O)O [3102.0009] (H-KSRRLNLFS-OH) | 3.3 nM | 
6 | CC[C@H](C)[C@H](NC(=O)[C@H](CCSC)NC(=O)[C@H](CCCCN)NC(=O)[C@@H](NC(=O)[C@@H](N)CC(C)C)C(C)C)C(=O)N[C@@H](CC(N)=O)C(=O)N[C@@H](Cc1c[nH]cn1)C(=O)N[C@@H](CC(C)C)C(=O)N[C@@H](CCCCN)C(=O)O [3102.0010] (H-LVKMINHLK-OH) | 42 nM | 
7 | CSCC[C@H](N)C(=O)N[C@H](C(=O)N[C@@H](CCCNC(=N)N)C(=O)N[C@@H](CC(C)C)C(=O)N[C@H](C(=O)N[C@H](C(=O)N[C@@H](CCC(N)=O)C(=O)NCC(=O)N[C@@H](CC(C)C)C(=O)O)[C@@H](C)O)[C@@H](C)O)C(C)C [3102.0012] (H-MVRLTTQGL-OH) | 8.3 nM | 
8 | CC[C@H](C)[C@H](NC(=O)[C@@H](N)CCCCN)C(=O)N[C@@H](CCCCN)C(=O)N[C@@H](CO)C(=O)N1CCC[C@H]1C(=O)N[C@H](C(=O)N[C@@H](Cc1ccc(O)cc1)C(=O)N[C@@H](Cc1ccc(O)cc1)C(=O)N[C@@H](CCCCN)C(=O)O)[C@@H](C)CC [3102.0014] (H-KIKSPIYYK-OH) | 0.93 nM | 
9 | CC(C)[C@H](NC(=O)[C@@H](N)CCCCN)C(=O)N[C@@H](Cc1ccccc1)C(=O)N[C@H](C(=O)N1CCC[C@H]1C(=O)N[C@@H](C)C(=O)N1CCC[C@H]1C(=O)N[C@@H](Cc1ccccc1)C(=O)NCC(=O)O)C(C)C [3102.0015] (H-KVFVPAPFG-OH) | 6.6 nM | 
10 | CC[C@H](C)[C@H](NC(=O)[C@H](CCCCN)NC(=O)[C@@H](NC(=O)[C@@H](N)Cc1c[nH]cn1)[C@@H](C)O)C(=O)N[C@@H](CC(=O)O)C(=O)N[C@@H](CO)C(=O)N[C@@H](CCSC)C(=O)N[C@@H](Cc1ccccc1)C(=O)N[C@@H](CC(C)C)C(=O)O [3102.0016] (H-HTKIDSMFL-OH) | 1.5 nM | 
11 | CC(C)C[C@H](NC(=O)[C@H](CO)NC(=O)[C@@H]1CCCN1C(=O)[C@@H]1CCCN1C(=O)[C@H](CO)NC(=O)[C@@H](NC(=O)[C@@H](N)CCCCN)C(C)C)C(=O)NCC(=O)N[C@@H](CCCCN)C(=O)O [3102.0017] (H-KVSPPSLGK-OH) | 1.1 nM | 
12 | CC[C@H](C)[C@H](NC(=O)[C@H](C)NC(=O)[C@H](CC(C)C)NC(=O)[C@H](Cc1c[nH]cn1)NC(=O)[C@H](CCC(N)=O)NC(=O)[C@@H](N)Cc1c[nH]cn1)C(=O)N[C@@H](CCSC)C(=O)N[C@@H](Cc1ccccc1)C(=O)N[C@@H](CCCCN)C(=O)O [3102.0020] (H-HQHLAIMFK-OH) | 5 nM | 
13 | CSCC[C@H](NC(=O)[C@H](CO)NC(=O)[C@H](CCCNC(=N)N)NC(=O)[C@@H]1CCCN1C(=O)[C@H](Cc1ccccc1)NC(=O)[C@H](CCCCN)NC(=O)[C@H](CO)NC(=O)[C@@H](N)CCCCN)C(=O)N[C@@H](CC(C)C)C(=O)O [3102.0022] (H-KSKFPRSML-OH) | 31 nM | 
14 | CC(C)C[C@H](NC(=O)[C@H](CO)NC(=O)[C@H](CO)NC(=O)[C@H](CCC(=O)O)NC(=O)[C@H](CCCCN)NC(=O)[C@H](CCCCN)NC(=O)[C@H](Cc1ccccc1)NC(=O)[C@@H](N)CCCNC(=N)N)C(=O)N[C@@H](C)C(=O)O [3102.0023] (H-RFKKESSLA-OH) | 0.31 nM | 
15 | CSCC[C@H](N)C(=O)N[C@@H](CC(C)C)C(=O)N[C@@H](CCCNC(=N)N)C(=O)N[C@H](C(=O)N[C@H](C(=O)N[C@@H](Cc1ccc(O)cc1)C(=O)N[C@@H](CS)C(=O)N[C@@H](CC(N)=O)C(=O)N[C@@H](CCCCN)C(=O)O)C(C)C)[C@@H](C)O [3102.0024] (H-MLRTVYCNK-OH) | 0.26 nM | 
16 | CC(C)[C@H](NC(=O)[C@H](CO)NC(=O)[C@H](CCCNC(=N)N)NC(=O)[C@H](CCCCN)NC(=O)[C@H](CO)NC(=O)[C@H](CC(N)=O)NC(=O)[C@H](CCCNC(=N)N)NC(=O)[C@H](CC(N)=O)NC(=O)[C@@H](N)CCCCN)C(=O)O [3102.0025] (H-KNRNSKRSV-OH) | 33 nM | 
17 | CC[C@H](C)[C@H](NC(=O)[C@H](CC(N)=O)NC(=O)[C@@H]1CCCN1C(=O)[C@H](CCCNC(=N)N)NC(=O)[C@H](Cc1ccc(O)cc1)NC(=O)[C@@H](N)CC(C)C)C(=O)N1CCC[C@H]1C(=O)N[C@@H](CC(C)C)C(=O)N[C@@H](CCCCN)C(=O)O [3102.0026] (H-LYRPNIPLK-OH) | 3.5 nM | 
18 | CC[C@H](C)[C@H](NC(=O)[C@H](Cc1ccccc1)NC(=O)[C@H](CCCCN)NC(=O)CNC(=O)[C@H](CCC(N)=O)NC(=O)[C@H](CCCNC(=N)N)NC(=O)[C@@H](NC(=O)[C@@H](N)CCCNC(=N)N)[C@@H](C)CC)C(=O)N[C@@H](CCCCN)C(=O)O [3102.0028] (H-RIRQGKFIK-OH) | 4.8 nM | 
19 | CC[C@H](C)[C@H](N)C(=O)N[C@H](C(=O)N[C@@H](CCCCN)C(=O)N[C@@H](CO)C(=O)N[C@@H](CO)C(=O)N[C@@H](Cc1ccc(O)cc1)C(=O)N[C@H](C(=O)N[C@@H](Cc1ccccc1)C(=O)N[C@@H](CCCCN)C(=O)O)C(C)C)[C@@H](C)CC [3102.0029] (H-IIKSSYVFK-OH) | 11 nM | 
20 | CC(C)C[C@H](NC(=O)[C@H](Cc1ccccc1)NC(=O)[C@H](CC(N)=O)NC(=O)[C@H](Cc1ccccc1)NC(=O)[C@@H]1CCCN1C(=O)[C@H](C)NC(=O)[C@H](CC(C)C)NC(=O)[C@@H](NC(=O)[C@@H](N)CCCCN)[C@@H](C)O)C(=O)O [3102.0030] (H-KTLAPFNFL-OH) | 15 nM | 
21 | N=C(N)NCCC[C@H](NC(=O)CNC(=O)[C@@H](N)CCCCN)C(=O)N[C@@H](CCCNC(=N)N)C(=O)N[C@@H](CCC(N)=O)C(=O)N[C@@H](Cc1ccc(O)cc1)C(=O)N[C@@H](Cc1ccccc1)C(=O)N[C@@H](Cc1ccc(O)cc1)C(=O)NCC(=O)O [3102.0035] (H-KGRRQYFYG-OH) | 2.9 nM | 
22 | CC[C@H](C)[C@H](NC(=O)[C@H](CCCCN)NC(=O)[C@@H](NC(=O)[C@@H](N)CCCNC(=N)N)[C@@H](C)O)C(=O)N1CCC[C@H]1C(=O)N[C@@H](CC(C)C)C(=O)N[C@@H](CO)C(=O)N[C@@H](CCCCN)C(=O)N[C@H](C(=O)O)C(C)C [3102.0039] (H-RTKIPLSKV-OH) | 4.1 nM | 
23 | CC(C)C[C@H](NC(=O)[C@H](CO)NC(=O)[C@@H]1CCCN1C(=O)[C@H](CO)NC(=O)[C@H](Cc1ccccc1)NC(=O)[C@H](CO)NC(=O)[C@@H](NC(=O)[C@H](CO)NC(=O)[C@@H](N)Cc1ccccc1)C(C)C)C(=O)O [3102.1332] (H-FSVSFSPSL-OH) |  | 22 nM
24 | CSCC[C@H](NC(=O)[C@@H](N)CCCCN)C(=O)N[C@H](C(=O)N[C@@H](Cc1ccc(O)cc1)C(=O)N[C@@H](C)C(=O)N[C@@H](CC(C)C)C(=O)N[C@@H](CC(C)C)C(=O)N[C@@H](CC(C)C)C(=O)N[C@@H](Cc1ccc(O)cc1)C(=O)O)C(C)C [3102.1336] (H-KMVYALLLY-OH) |  | 2.7 nM
25 | CC(C)C[C@H](NC(=O)[C@H](C)NC(=O)[C@H](CO)NC(=O)[C@@H](N)Cc1ccccc1)C(=O)N1CCC[C@H]1C(=O)N[C@H](C(=O)N[C@@H](CC(N)=O)C(=O)N[C@@H](CCC(=O)O)C(=O)N[C@@H](Cc1ccccc1)C(=O)O)[C@@H](C)O [3102.1337] (H-FSALPTNEF-OH) |  | 0.13 nM
26 | CC[C@H](C)[C@H](NC(=O)[C@H](CO)NC(=O)[C@H](CC(=O)O)NC(=O)[C@H](CO)NC(=O)[C@H](CC(N)=O)NC(=O)[C@H](CCC(N)=O)NC(=O)[C@H](CCC(N)=O)NC(=O)[C@@H](N)CO)C(=O)N[C@@H](Cc1ccccc1)C(=O)O [3102.1340] (H-SQQNSDSIF-OH) |  | 1.9 nM
27 | CC[C@H](C)[C@H](NC(=O)[C@H](CC(N)=O)NC(=O)[C@@H](NC(=O)[C@H](Cc1ccccc1)NC(=O)[C@H](CO)NC(=O)[C@@H](NC(=O)[C@H](CO)NC(=O)[C@@H](N)Cc1c[nH]c2ccccc12)[C@@H](C)O)[C@@H](C)O)C(=O)N[C@@H](Cc1ccccc1)C(=O)O [3102.1342] (H-WSTSFTNIF-OH) |  | 5.9 nM
28 | CC[C@H](C)[C@H](NC(=O)[C@H](CC(C)C)NC(=O)[C@H](CCC(=O)O)NC(=O)[C@@H](NC(=O)[C@@H](NC(=O)[C@H](CCC(N)=O)NC(=O)[C@@H](N)CO)[C@@H](C)O)[C@@H](C)CC)C(=O)N[C@@H](C)C(=O)N[C@@H](Cc1ccccc1)C(=O)O [3102.1343] (H-SQTIELIAF-OH) |  | 0.21 nM
29 | CC[C@H](C)[C@H](NC(=O)[C@H](CC(N)=O)NC(=O)[C@H](CCSC)NC(=O)[C@@H](NC(=O)[C@H](CCSC)NC(=O)[C@@H](N)CC(C)C)[C@@H](C)O)C(=O)N[C@H](C(=O)N[C@@H](CC(N)=O)C(=O)N[C@@H](Cc1ccccc1)C(=O)O)C(C)C [3102.1344] (H-LMTMNIVNF-OH) |  | 17 nM
